These results are taken from patent US9623009B2, “Veliparib in combination with carboplatin and paclitaxel for the treatment of non-small cell lung cancer in smokers” (AbbVie Inc., priority 2014, dated 2017).

For series [1], the system named is metastatic or advanced non-small cell lung cancer (NSCLC). Kind of series: Phase 2 randomized double-blind study: PFS and OS with veliparib + carboplatin/paclitaxel versus placebo + carboplatin/paclitaxel. In kind it is in vivo, human. The procedure: (§1) A Phase 2, randomized, double-blind, multi-center study was conducted evaluating the efficacy, safety, and tolerability of veliparib in combination with carboplatin and paclitaxel versus placebo in combination with carboplatin and paclitaxel in subjects with documented metastatic or advanced non-small cell lung cancer (NSCLC) as first-line chemotherapy. Patients were randomized in a 2:1 ratio to either veliparib+carboplatin/paclitaxel or placebo+carboplatin/paclitaxel. Patient randomization was stratified by histology (squamous cell versus non-squamous cell), and smoking history (current smoker versus never smoked versus past smoker). Screening procedures and baseline radiographic tumor assessments were performed within 21 days prior to the first day veliparib/placebo was administered. Radiographic tumor assessments were conducted every 6 weeks and were sent to a central imaging center for review. Dosing of oral veliparib/placebo (120 mg) began 2 days prior to the start of the carboplatin/paclitaxel and was given twice a day (BID) for 7 days. […] All subjects were to remain on study until reaching a protocol defined event of disease progression. Patients who completed 6 cycles of treatment remained on study/off study drugs until reaching an event of disease progression. Chemotherapy or biological therapy (maintenance therapy) was not allowed until disease progression. Patients who experienced toxicities due to carboplatin/paclitaxel or veliparib may have been given a delay in the dosing schedule or a dose modification.

Series [2] is described as follows: clinical. The method, then: as §1
Pharmacokinetic parameters were evaluated for patients with chemical evidence of recent smoking (cotinine high^b, >10 ng/mL) compared with those without evidence of recent smoking (cotinine low, ≦10 ng/mL).

Where [3] appears, read: patients without chemical evidence of smoking.

Consider `C[C@]1(c2nc3c(C(N)=O)cccc3[nH]2)CCCN1` [Veliparib, 2-[(2R)-2-methylpyrrolidin-2-yl]-1H-benzimidazole-4-carboxamide], for which the “HR for OS” value was 0.808 in series [1] (light smokers (<39 pack-years)) and 0.921 in series [1] (setting [3]). Besides, the “HR for PFS” value in series [1] (light smokers (<39 pack-years)) stood at 0.971; in series [1] (setting [3]), 0.966. Besides, the “Tmax, Mean ± SD (% CV)” value in series [2] (human, in vivo, po) is reported as 1.05 ± 0.82 (78.3) hr. Further, the Tmax in series [2] (human, in vivo, po, Tmax, Mean ± SD (% CV)) was 1.34 h.

As to `N.N.O=C([O-])C1(C(=O)[O-])CCC1.[Pt+2]` [carboplatin], in series [2] (cotinine high >10 ng/mL vs cotinine low ≦10 ng/mL), the “differences in levels between cotinine high and cotinine low patients” value is “no clear differences”.

By Tmax is commonly meant the time at which the peak concentration occurs.
